Source: PMC7862169, “Restoration of renal TIMP3 levels via genetics and pharmacological approach prevents experimental diabetic nephropathy” (Clinical and Translational Medicine, 2021)

Columns and labels:
[1] = cited from earlier work; for Kidney selectivity of carrier peptide: even with conjugated drugs
Source text: Many proteins and peptides take on an increasingly important role as therapeutics in areas including diabetes diseases mainly due to their potential to bind to targets in a selective manner, thus reducing undesired off‐target effects. ^17 Drug‐targeting delivery to the kidney is an attractive method to increase the pharmaceutical compounds efficacy, ^18 however it represents a promising but underdeveloped area. Recently, galectin‐3 targeted G3C12 peptide and ε‐polylysine derived, synthetic (KKEEE)3K peptide have been identified as novel highly kidney‐specific carriers with exceptional kidney s ...

[2] = biological target: T1, human recombinant MMP2 (Homo sapiens, UniProt P08253); experiment: MMP2 colorimetric Inhibitor Screening Assay kit; type: biochemical; details: 1 μM peptide, 0.9 U enzyme, 37°C 60 minutes before substrate, read at 412 nm, n = 3; Figures 5A, S4E
T1 construct: purchased Abcam
T1 sequence (P08253 110-660): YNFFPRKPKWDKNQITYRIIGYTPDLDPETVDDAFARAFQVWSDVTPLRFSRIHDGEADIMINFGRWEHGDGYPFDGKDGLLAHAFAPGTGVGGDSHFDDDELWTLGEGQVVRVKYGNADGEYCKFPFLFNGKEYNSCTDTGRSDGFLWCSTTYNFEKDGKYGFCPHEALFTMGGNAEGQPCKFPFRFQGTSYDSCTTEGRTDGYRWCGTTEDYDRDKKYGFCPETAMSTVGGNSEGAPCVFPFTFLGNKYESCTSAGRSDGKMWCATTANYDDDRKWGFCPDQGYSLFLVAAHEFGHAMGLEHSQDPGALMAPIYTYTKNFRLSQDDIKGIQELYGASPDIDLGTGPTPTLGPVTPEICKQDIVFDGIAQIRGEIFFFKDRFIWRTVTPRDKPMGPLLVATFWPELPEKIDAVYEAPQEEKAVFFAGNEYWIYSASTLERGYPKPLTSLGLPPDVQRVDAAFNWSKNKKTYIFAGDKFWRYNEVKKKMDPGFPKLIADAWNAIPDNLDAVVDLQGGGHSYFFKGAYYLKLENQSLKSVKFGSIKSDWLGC
Experimental: (§1) The MMP2/9 activities were evaluated using MMP2/MMP9 colorimetric Inhibitor Screening Assay kits (Abcam) under the manufacturer's instruction. In brief, 0.9 U of human recombinant MMP2 or MMP9 was mixed with 1 μM G3C12, G3C12‐NTIMP3, G3C12‐T2GNTIMP3 peptides, or 1.3 μM NNGH inhibitor as […]. The mixture was incubated at 37°C for 60 minutes then substrate was added. The plate was read at 412 nm by infinite F50 microplate reader (TECAN). Continuous recording was made at 1 minute interval for 20 minutes. The experiment was performed in triplicate.

[3] = biological target: T2, human recombinant MMP9 (Homo sapiens, UniProt P14780); experiment: MMP9 colorimetric Inhibitor Screening Assay kit; type: biochemical; details: 1 μM peptide, 0.9 U enzyme, 37°C 60 minutes before substrate, read at 412 nm, n = 3; Figures 5A, S4E
T2 construct: purchased Abcam
Experimental: as §1

[4] = biological target: T3, human recombinant ADAM17 (Homo sapiens, UniProt P78536); experiment: ADAM17 activity, SensoLyte 520 TACE Activity Assay Kit; type: biochemical; details: 1 μM peptide, 1 μM enzyme, QXL520/5-FAM FRET substrate, 60 minutes, n = 3; Figures 5A, S4E
T3 construct: purchased R&D Systems
Experimental: ADAM17 activity was determined using the SensoLyte 520 TACE Activity Assay Kit (AnaSpec). 1 μM human recombinant ADAM17 (R&D Systems) was incubated with the QXL520/ 5‐FAM FRET substrate, derived from a sequence surrounding the cleavage site of ADAM17. For inhibitor studies, 1μM TAPI‐0 or 1 μM G3C12, G3C12‐NTIMP3 and G3C12‐T2GNTIMP3 peptides were used. Active ADAM17 cleaves FRET substrate into two separate fragments resulting in an increase of 5‐FAM fluorescence which can be monitored at excitation/emission = 490 nm/520 nm measured in a fluorescence microplate reader (Beckman Coulter DTX 800) continuously every 5 minutes for 60 minutes (10).

[5] = tested on: diabetic DBA/2J mice; experiment: Peptide treatment of STZ diabetic mice: toxicity, behaviour, blood glucose; type: in vivo; details: STZ diabetic DBA/2J mice, 2 mg/kg iv, two injections per week for 8 weeks
Experimental: Diabetes was induced in 8‐week‐old mice by a multiple low‐dose streptozotocin (STZ) (Sigma) injection. STZ was given intraperitoneally (ip) at 50 mg/kg per day (freshly made in Na‐Citrate buffer, pH 4.5) for 5 consecutive days after a 4 hours fast. Control animals were treated with Na‐citrate buffer alone. Diabetes was defined as fed blood glucose level ≥250 mg/dL using a glucometer (OneTouch Ultra, LifeScan).
At 5 weeks after STZ or Na‐Citrate buffer administration, DBA/2J mice were randomly divided into the following four treatment groups: (1) vehicle buffer (PBS), (2) G3C12 free peptide, (3) G3C12‐NTIMP3 peptide, and (4) G3C12‐T2GNTIMP3 peptide. Peptides were dissolved in sterile PBS and administered intravenously (iv) by retro‐orbital injection (2 mg/kg body weight) in mice two times per week for 8 weeks.

T2 sequence (P14780 94-707): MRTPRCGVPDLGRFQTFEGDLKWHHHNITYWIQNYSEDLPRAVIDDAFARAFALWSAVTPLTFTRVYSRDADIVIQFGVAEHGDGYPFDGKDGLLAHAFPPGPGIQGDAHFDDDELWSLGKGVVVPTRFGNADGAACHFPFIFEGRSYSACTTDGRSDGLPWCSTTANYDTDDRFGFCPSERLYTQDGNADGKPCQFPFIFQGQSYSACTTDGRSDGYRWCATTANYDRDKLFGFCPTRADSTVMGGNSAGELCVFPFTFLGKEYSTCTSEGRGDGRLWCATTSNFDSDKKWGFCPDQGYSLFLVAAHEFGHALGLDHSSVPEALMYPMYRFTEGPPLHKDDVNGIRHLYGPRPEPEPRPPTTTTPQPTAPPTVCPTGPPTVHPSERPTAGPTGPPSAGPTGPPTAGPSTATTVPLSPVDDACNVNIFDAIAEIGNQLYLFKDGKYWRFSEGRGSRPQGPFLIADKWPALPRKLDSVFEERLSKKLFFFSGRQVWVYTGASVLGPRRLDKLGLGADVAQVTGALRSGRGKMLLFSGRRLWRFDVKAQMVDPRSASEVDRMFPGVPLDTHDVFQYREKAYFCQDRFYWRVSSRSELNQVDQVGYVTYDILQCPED
T3 sequence (P78536 215-824): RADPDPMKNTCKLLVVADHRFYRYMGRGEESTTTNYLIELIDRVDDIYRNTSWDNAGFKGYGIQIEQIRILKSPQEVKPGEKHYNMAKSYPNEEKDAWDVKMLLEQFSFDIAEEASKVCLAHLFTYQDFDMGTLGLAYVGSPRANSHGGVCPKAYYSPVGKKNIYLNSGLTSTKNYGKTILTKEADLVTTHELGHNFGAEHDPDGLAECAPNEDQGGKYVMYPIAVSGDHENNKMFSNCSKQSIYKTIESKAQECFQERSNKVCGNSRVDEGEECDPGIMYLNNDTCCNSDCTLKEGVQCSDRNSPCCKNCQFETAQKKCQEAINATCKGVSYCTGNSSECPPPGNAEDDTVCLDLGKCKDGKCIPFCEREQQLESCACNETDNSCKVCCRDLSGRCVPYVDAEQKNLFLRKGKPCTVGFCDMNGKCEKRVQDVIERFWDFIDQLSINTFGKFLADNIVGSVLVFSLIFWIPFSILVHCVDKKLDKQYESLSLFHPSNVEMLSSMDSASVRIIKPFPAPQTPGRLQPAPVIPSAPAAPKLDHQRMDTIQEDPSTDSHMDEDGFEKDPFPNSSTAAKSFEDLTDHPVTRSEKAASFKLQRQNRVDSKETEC

Substance	Kidney accumulation of carrier peptide [1]	Toxic profile of carrier peptide [1]	Kidney selectivity of carrier peptide [1]	Inhibition of human MMP2 enzyme activity (percentage of residual activity) [2]	Inhibition of human MMP9 enzyme activity (percentage of residual activity) [3]	Inhibition of human ADAM17 enzyme activity (percentage of residual activity) [4]	Changes in behavioral or nutritional status [5]	Toxic effects [5]
(KKEEE)3K [ε‐polylysine derived, synthetic kidney‐specific carrier peptide]	rapid kidney accumulation	no toxic profile	exceptional kidney selectivity	–	–	–	–	–
ANTPCGPYTHDCPVKR [G3C12]	rapid kidney accumulation	no toxic profile	exceptional kidney selectivity	did not show any inhibitory activity	did not show any inhibitory activity	did not show any inhibitory activity	Neither have any changes been observed	No toxic effects were observed
